Test system: cartilage defect model mice (knee joint articular cartilage defect)
Assay: Efficacy of HMGB1 fragment peptide on articular cartilage defect in cartilage defect model mouse
Format: in vivo, C57BL/6J mice
Procedure: C57BL/6J mice (6-7 weeks old, male, wild type) were purchased from CLEA Japan, Inc., and then acclimated to animal facilities until they were 8 weeks old (weighing approximately 25 g at 8 weeks old). While the mice were under 1.5-2.0% (v/v) isoflurane inhalation anesthesia, shaving was performed on the lower extremity of the side to create a cartilage defect, and a longitudinal skin incision of approximately 1 cm was applied with scissors to the middle of the knee joint. An articular dissection of approximately 1 cm was performed under the microscope with a sharp blade (#11) in the parapatellar medial approach to dislocate the patella laterally. The femoral pulley was confirmed, and a 0.5×0.5×0.5 mm cartilage defect was created at the center of the pulley using a 0.5 mm diameter hand-turned drill (manufactured by MEISINGER USA, L.L.C.). Inside of the joint was washed with saline, then the articular capsule was continuously sutured with 8-0 vicryl to prevent patellar dislocation, and the skin was sutured with 5-0 nylon thread.
Cartilage defect model mice created as described above were divided into an HMGB1 peptide (1-44) administration group (n=16) and a control group (n=16). To the HMGB1 peptide (1-44) administration group, a solution of HMGB1 peptide (1-44) adjusted to a concentration of 1 μg/μL with saline as solvent was administered from the tail vein in an amount of 100 μL/mouse (4 mg/kg as the dose of peptide) immediately after the cartilage defect was created, and thereafter, the same dose was administered twice a week until 4 weeks after the cartilage defect was created (hereinafter also referred to simply as “post-operative”). To the control group, saline was administered from the tail vein in an amount of 100 μL to each mouse on the same schedule as in the HMGB1 peptide (1-44) administration group.
In both the HMGB1 peptide (1-44) administration group and the control group, four mice were sacrificed at each time point of 2, 4, 8 and 12 weeks post-operative, and the cartilage defect creation sites of knee joints were removed for microscopic observation and tissue staining. For microscopic observation, the status of cartilage tissue was evaluated by scoring the gross appearance according to the criteria shown in Table 1 below using the Wayne scoring system. In addition, sections of cartilage tissue were created for histological evaluation and subjected to safranin O staining, and the status of cartilage tissue was evaluated by calculating the Wakitani score from the tissue images according to the criteria shown in Table 2 below.

With “HMGB1 peptide (1-44): Peptide consisting of amino acid residues 1-44 (SEQ ID NO: 1) of human-derived HMGB1 protein, chemically synthesized by a solid-phase method (MGKGDPKKPRGKMSSYAFFVQTCREEHKKKHPDASVNFSEFSKK)” the “Microscopic observation (gross appearance) of cartilage defect sites of knee joints” value (4 mg/kg tail vein, twice a week until 4 weeks post-operative, observed at 2, 4, 8 and 12 weeks post-operative, vs control group (saline)) was “recovered to a state closer to normal than those of the control group”, the “Safranin O staining of cartilage tissue sections (regeneration of defective cartilage tissue)” value (4 mg/kg tail vein, twice a week until 4 weeks, 2, 4, 8 and 12 weeks post-operative, FIGS. 3 and 5) was “defective cartilage tissue was fully regenerated” and the “Wayne score (gross appearance)” value (4 mg/kg tail vein, twice a week until 4 weeks, 2, 4, 8 and 12 weeks post-operative, vs control group, FIG. 2) was “higher than the control group”. The “Wakitani score (histological evaluation)” value (4 mg/kg tail vein, twice a week until 4 weeks, 2, 4, 8 and 12 weeks post-operative, vs control group, FIGS. 4 and 6) was “significantly lower compared to that of the control group” and the “Safranin O staining response of knee joint cartilage tissues compared with normal mice” value (12 weeks post-operative, compared with cartilage of normal mice (FIG. 8, left)) was “strong positive response similar to cartilage tissues of knee joints of normal mice”.

— US20210386823A1, “THERAPEUTIC AGENT FOR CARTILAGE DISORDER” (OSAKA UNIVERSITY, priority 2018, published 2021)
